Test results published in patent EP1330254B1, “TREATMENT OF CANCERS BY APLIDINE IN CONJUNCTION WITH CARNITINE OR ACETYLCARNITINE” (priority 2000, dated 2002).

How the values were obtained:
[1] = L-carnitine as myoprotector in aplidine patients (study APL-A-003-98); format: in vivo, human
Protocol: More generally, the invention involves the use of a muscle protector in conjunction with aplidine therapy. We have found in particular that carnitine is beneficial in treating myotoxicity that is associated with chemotherapy with the experimental drug aplidine. […] When L-carnitine 4.5 g/day was added to the therapy (at doses of 1.5 g three times daily), or […] (at doses of […] 3 times daily) patients were able to tolerate doses of aplidine up to 6000 mcg/m 2 every second week. […] Therefore, muscle protectors such as L-carnitine is a useful myoprotector for patients being treated with aplidine or an aplidine analogue.
L-carnitine at a dose of 1.5 grams 3 times per day or 0.033 g/kg 3 times per day was started in all patients of study APL-A-003-98.
The dose may be decreased to manage the above effects.

[2] = test system: panel of 25 human tumor cell lines; test: tumor protection by L-carnitine, cell line panel; format: cell-based; details: initial results
Protocol: The possibility of tumor protection by L-carnitine was evaluated using a panel of 25 human tumor cell lines.

[3] = L-carnitine at the doses used in this study

SMILES: C[N+](C)(C)C[C@H](O)CC(=O)[O-] [L-carnitine]
- outcome in patients with prior skeletal muscle toxicity ([1]; 4 patients continuing aplidine, L-carnitine 1.5 grams 3 times per day or 0.033 g/kg 3 times per day): no skeletal muscle symptoms and just transient grade 1 CK increases
- outcome in patients on L-carnitine prophylaxis from the beginning ([1]; 11 patients): just an asymptomatic G1 increase in CK
- only toxicity reported [1, 3]: grade 1 abdominal discornfort and diarrhea
- tolerability [1, 3]: well tolerated
- increase of aplidine MTD ([1]; L-carnitine prophylaxis, 24 h every other week infusion study): 33%
- outcome after L-carnitine at reduced doses ([1]; two patients, grade 3 with weakness and grade 1 with asthenia): symptomatic increases in CK
- effect on the antitumor activity of aplidine [2]: lack of effect
